We go through one substance from article PMC10178127, “Immunomodulatory Effects of the Pea Defensin Psd1 in the Caco-2/Immune Cells Co-Culture upon Candida albicans Infection” (International Journal of Molecular Sciences, 2023).

This assay deals with C. albicans v47a3. Put plainly: Antifungal activity, microdilution method. It counts as cell-based, Candida albicans. How it is done: Antifungal activity of recombinant Psd1 against C. albicans v47a3 was tested by the microdilution method using 96-well microplates mainly as described for this defensin in [15]. Yeast cells in half-modified YPD broth at a final concentration of 10^4 cells/mL were used. Final Psd1 concentrations in the wells were 100, 50, 25, 12.5, 6.25, 3.125, and 1.56 μM. Plates were incubated at 30 °C for 24 h. Yeast growth was estimated using an inverted microscope as well as by measuring the optical density at 540 nm. The percentage of growth inhibition was defined as growth inhibition(%) = ((Acontrol − Asample)/Acontrol) × 100%. All of the experiments were performed twice in triplicate.

As for “Psd1: pea defensin from Pisum sativum (UNIPROT P81929), recombinant peptide overexpressed in Escherichia coli (KTCEHLADTYRGVCFTNASCDDHCKNKAHLISGTCHNWKCFCTQNC; UniProt P81929 1-46, looked up)”, the IC50 (C. albicans v47a3, 10^4 cells/mL, half-modified YPD broth, 30 °C, 24 h, OD 540 nm, twice in triplicate, read-out: concentration of 50% growth inhibition of yeast cells) amounted to 25 µM. Also, the “effect on the morphology of the fungus” value (C. albicans v47a3, inverted microscope) is “did not affect the morphology of the fungus”.
